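How tested: cells in 96-well plates exposed to compound for 48 hours at five concentrations. GI50: concentration for 50% inhibition of growth.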 Calls of active or inactive are those of the source. Cut-off read from the data, not from the text of the source: active = GI50 up to about 1.1 µM and inactive = higher.
How the values were obtained:
Assay in all cases: NCI anticancer screen, dose series, 48 h
A549 = system: A549
CCRF-CEM = system: CCRF-CEM
HOP-62 = system: HOP-62
HOP-92 = system: HOP-92
M19-MEL = system: M19-MEL
MOLT-4 = system: MOLT-4
NCI-H460 = system: NCI-H460
OVCAR-5 = system: OVCAR-5
SF-295 = system: SF-295
SF-539 = system: SF-539
SN12C = system: SN12C
SNB-75 = system: SNB-75
UACC-62 = system: UACC-62
UO-31 = system: UO-31
RXF 393 = system: RXF 393
MCF7 = system: MCF7
MDA-MB-231 = system: MDA-MB-231
MDA-MB-435 = system: MDA-MB-435
MDA-N = system: MDA-N
T47D = system: T47D

SMILES | GI50 (A549) | GI50 (CCRF-CEM) | GI50 (HOP-62) | GI50 (HOP-92) | GI50 (M19-MEL) | GI50 (MOLT-4) | GI50 (NCI-H460) | GI50 (OVCAR-5) | GI50 (SF-295) | GI50 (SF-539) | GI50 (SN12C) | GI50 (SNB-75) | GI50 (UACC-62) | GI50 (UO-31) | GI50 (RXF 393) | GI50 (MCF7) | GI50 (MDA-MB-231) | GI50 (MDA-MB-435) | GI50 (MDA-N) | GI50 (T47D)
CC(C)(C)c1ccc(OC2CCO2)cc1 (configuration not stated) | 61.2 µM (inactive) | 24.7 µM (inactive) | > 100 µM (inactive) | 35.4 µM (inactive) | 23.1 µM (inactive) | 38.1 µM (inactive) | 24.3 µM (inactive) | 32.7 µM (inactive) | 46.9 µM (inactive) | 37.6 µM (inactive) | 18.7 µM (inactive) | 53.8 µM (inactive) | 24 µM (inactive) | 58.2 µM (inactive) |  |  |  |  |  | 
COC(=O)C1CCc2c1c(=O)n1c([nH]c3ccccc31)c2C#N (configuration not stated) | > 100 µM (inactive) | > 100 µM (inactive) | > 100 µM (inactive) | > 100 µM (inactive) | > 100 µM (inactive) |  | > 100 µM (inactive) | > 100 µM (inactive) | > 100 µM (inactive) | > 100 µM (inactive) |  | > 100 µM (inactive) | > 100 µM (inactive) | > 100 µM (inactive) | > 100 µM (inactive) |  |  |  |  | 
COc1ccc(-c2c(C#N)c(=O)nc(SC)n2C2OCC(OC(C)=O)C(OC(C)=O)C2OC(C)=O)cc1 (configuration not stated) | 82.4 µM (inactive) | 29 µM (inactive) | > 100 µM (inactive) | > 100 µM (inactive) |  | 21.3 µM (inactive) | 27.2 µM (inactive) | > 100 µM (inactive) | > 100 µM (inactive) | > 100 µM (inactive) | > 100 µM (inactive) | 95.9 µM (inactive) | 33.5 µM (inactive) | 38.6 µM (inactive) | > 100 µM (inactive) | > 100 µM (inactive) | 58.7 µM (inactive) | > 100 µM (inactive) | 83.4 µM (inactive) | 63.4 µM (inactive)
CCCCc1c2c(nc3c1CCC/C3=C\c1ccccc1)/C(=C/c1ccccc1)CCC2 | > 100 µM (inactive) | > 100 µM (inactive) | > 100 µM (inactive) |  | > 100 µM (inactive) | > 100 µM (inactive) | > 100 µM (inactive) |  | > 100 µM (inactive) | > 100 µM (inactive) | > 100 µM (inactive) |  | > 100 µM (inactive) | > 100 µM (inactive) |  |  |  |  |  | 
COc1ccc2c(c1)c1c3n2CCNN=C3CCC1 | > 83.8 µM (inactive) | 56.1 µM (inactive) | > 74.3 µM (inactive) | > 49.2 µM (inactive) | > 100 µM (inactive) | > 37.5 µM (inactive) | > 100 µM (inactive) | > 57.4 µM (inactive) | > 100 µM (inactive) | > 77.4 µM (inactive) | > 61.7 µM (inactive) | 48.6 µM (inactive) | 60.4 µM (inactive) | > 43.7 µM (inactive) |  |  |  |  |  | 
CC1C2CC(CC2(C)O)C1(C)C (configuration not stated) | > 100 µM (inactive) | > 100 µM (inactive) | > 100 µM (inactive) | > 100 µM (inactive) |  | > 100 µM (inactive) | > 100 µM (inactive) | > 100 µM (inactive) | > 100 µM (inactive) | > 100 µM (inactive) | > 100 µM (inactive) | > 100 µM (inactive) | > 100 µM (inactive) | > 100 µM (inactive) | > 100 µM (inactive) | > 100 µM (inactive) | > 100 µM (inactive) | > 10 µM (inactive) | > 100 µM (inactive) | > 100 µM (inactive)
CC(C)c1ccc2c(c1)CCC1C(C)(CN)CCCC21C (configuration not stated) | 1.8 µM (inactive) | 1.55 µM (inactive) | 1.75 µM (inactive) | 1.55 µM (inactive) |  | 1.32 µM (inactive) | 1.22 µM (inactive) | 1.76 µM (inactive) | 1.82 µM (inactive) | 1.79 µM (inactive) | 1.71 µM (inactive) | 1.94 µM (inactive) | 1.77 µM (inactive) | 1.39 µM (inactive) | 1.56 µM (inactive) | 1.44 µM (inactive) | 1.42 µM (inactive) | 1.44 µM (inactive) | 1.51 µM (inactive) | 1.45 µM (inactive)
Cc1ccc(C(C)C)c(OCC(=O)N/N=C/c2c[nH]c3ccc(Br)cc23)c1 | 3.1 µM (inactive) | 2.11 µM (inactive) | 5.79 µM (inactive) | 12.3 µM (inactive) |  | 3.3 µM (inactive) | 2.17 µM (inactive) | 5.11 µM (inactive) | 2.45 µM (inactive) | 1.72 µM (inactive) | 3.27 µM (inactive) | 2.13 µM (inactive) | 2.29 µM (inactive) | 3.49 µM (inactive) | 1.37 µM (inactive) | 0.45 µM (active) | 3.17 µM (inactive) | 0.904 µM (active) | 0.923 µM (active) | 5.62 µM (inactive)
Cc1ccc(C)c2sc3cc(=O)ccc-3nc12 | 41.2 µM (inactive) | 14.9 µM (inactive) | 28.7 µM (inactive) | 28.1 µM (inactive) | 17.3 µM (inactive) | 15 µM (inactive) | 34.2 µM (inactive) | 30.8 µM (inactive) | 39.1 µM (inactive) | 32.2 µM (inactive) | 57.7 µM (inactive) | 55.5 µM (inactive) | 17.5 µM (inactive) | 45.5 µM (inactive) |  |  |  |  |  | 
